Test results reported in PubChem BioAssay (NCI).
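Step 1: Grow cells in 96-well plates. Step 2: Expose to compound for 48 hours at 5 concentrations. Step 3: Interpolate endpoints linearly; if unreached, use highest concentration. At the TGI there is no net growth.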

Experiments:
Experiment in all cases: growth of human tumour cells (NCI), 48 h
TK-10 renal = test system: TK-10 renal
HCT-116 colon = test system: HCT-116 colon
HOP-62 NSCLC = test system: HOP-62 NSCLC
UACC-62 melanoma = test system: UACC-62 melanoma
MDA-MB-435 = test system: MDA-MB-435
SK-OV-3 ovarian = test system: SK-OV-3 ovarian
HCT-15 colon = test system: HCT-15 colon
NCI-H23 lung = test system: NCI-H23 lung
SK-MEL-5 melanoma = test system: SK-MEL-5 melanoma
COLO 205 colon = test system: COLO 205 colon
RPMI-8226 leukemia = test system: RPMI-8226 leukemia
MOLT-4 leukemia = test system: MOLT-4 leukemia
NCI-H522 lung = test system: NCI-H522 lung
KM12 colon = test system: KM12 colon
SR leukemia = test system: SR leukemia
CCRF-CEM leukemia = test system: CCRF-CEM leukemia
SF-539 CNS = test system: SF-539 CNS
OVCAR-8 ovarian = test system: OVCAR-8 ovarian
NCI-H460 lung = test system: NCI-H460 lung
OVCAR-3 ovarian = test system: OVCAR-3 ovarian
DU-145 prostate = test system: DU-145 prostate
SN12C renal = test system: SN12C renal
CAKI-1 renal = test system: CAKI-1 renal
SW-620 colon = test system: SW-620 colon
MALME-3M melanoma = test system: MALME-3M melanoma
SK-MEL-28 melanoma = test system: SK-MEL-28 melanoma
U251 CNS = test system: U251 CNS
HCC-2998 colon = test system: HCC-2998 colon
HT29 colon = test system: HT29 colon
HS 578T breast = test system: HS 578T breast
NCI-H226 lung = test system: NCI-H226 lung
OVCAR-5 ovarian = test system: OVCAR-5 ovarian
LOX IMVI melanoma = test system: LOX IMVI melanoma
IGROV1 ovarian = test system: IGROV1 ovarian
OVCAR-4 ovarian = test system: OVCAR-4 ovarian
MDA-N = test system: MDA-N
HL-60(TB) leukemia = test system: HL-60(TB) leukemia
A498 renal = test system: A498 renal
UO-31 renal = test system: UO-31 renal
PC-3 prostate = test system: PC-3 prostate
SF-268 CNS = test system: SF-268 CNS
UACC-257 melanoma = test system: UACC-257 melanoma
T-47D breast = test system: T-47D breast
SF-295 CNS = test system: SF-295 CNS
MDA-MB-231 breast = test system: MDA-MB-231 breast
K-562 leukemia = test system: K-562 leukemia
786-0 renal = test system: 786-0 renal
HOP-92 NSCLC = test system: HOP-92 NSCLC
SNB-75 CNS = test system: SNB-75 CNS
MCF7 breast = test system: MCF7 breast
ACHN renal = test system: ACHN renal
NCI/ADR-RES ovarian = test system: NCI/ADR-RES ovarian
SNB-19 CNS = test system: SNB-19 CNS
A549 NSCLC = test system: A549 NSCLC
BT-549 breast = test system: BT-549 breast
RXF 393 renal = test system: RXF 393 renal
SK-MEL-2 melanoma = test system: SK-MEL-2 melanoma
EKVX NSCLC = test system: EKVX NSCLC
M14 melanoma = test system: M14 melanoma

CC(C)(C)OC(=O)NCC(=O)NC1CC=CCC1NC(=O)CNC(=O)OC(C)(C)C (stereo unspecified)
TGI (TK-10 renal): > 100 µM | TGI (HCT-116 colon): > 100 µM | TGI (HOP-62 NSCLC): > 100 µM | TGI (UACC-62 melanoma): > 100 µM | TGI (MDA-MB-435): > 100 µM | TGI (SK-OV-3 ovarian): > 100 µM | TGI (HCT-15 colon): > 100 µM | TGI (NCI-H23 lung): > 100 µM | TGI (SK-MEL-5 melanoma): > 100 µM | TGI (COLO 205 colon): > 100 µM | TGI (RPMI-8226 leukemia): > 100 µM | TGI (MOLT-4 leukemia): > 100 µM | TGI (NCI-H522 lung): > 100 µM | TGI (KM12 colon): > 100 µM | TGI (SR leukemia): > 100 µM | TGI (CCRF-CEM leukemia): > 100 µM | TGI (SF-539 CNS): > 100 µM | TGI (OVCAR-8 ovarian): > 100 µM | TGI (NCI-H460 lung): > 100 µM | TGI (OVCAR-3 ovarian): > 100 µM | TGI (DU-145 prostate): > 100 µM | TGI (SN12C renal): > 100 µM | TGI (CAKI-1 renal): > 100 µM | TGI (SW-620 colon): > 100 µM | TGI (MALME-3M melanoma): > 100 µM | TGI (SK-MEL-28 melanoma): > 100 µM | TGI (U251 CNS): > 100 µM | TGI (HCC-2998 colon): > 100 µM | TGI (HT29 colon): > 100 µM | TGI (HS 578T breast): > 100 µM | TGI (NCI-H226 lung): > 100 µM | TGI (OVCAR-5 ovarian): > 100 µM | TGI (LOX IMVI melanoma): > 100 µM | TGI (IGROV1 ovarian): > 100 µM | TGI (OVCAR-4 ovarian): > 100 µM | TGI (MDA-N): > 100 µM | TGI (HL-60(TB) leukemia): > 100 µM | TGI (A498 renal): > 100 µM | TGI (UO-31 renal): > 100 µM | TGI (PC-3 prostate): > 100 µM | TGI (SF-268 CNS): > 100 µM | TGI (UACC-257 melanoma): > 100 µM | TGI (T-47D breast): > 100 µM | TGI (SF-295 CNS): > 100 µM | TGI (MDA-MB-231 breast): > 100 µM | TGI (K-562 leukemia): > 100 µM | TGI (786-0 renal): > 100 µM | TGI (HOP-92 NSCLC): > 100 µM | TGI (SNB-75 CNS): > 100 µM | TGI (MCF7 breast): > 100 µM | TGI (ACHN renal): > 100 µM | TGI (NCI/ADR-RES ovarian): > 100 µM | TGI (SNB-19 CNS): > 100 µM | TGI (A549 NSCLC): > 100 µM | TGI (BT-549 breast): > 100 µM | TGI (RXF 393 renal): > 100 µM

CC[C@@]1(O)C(=O)OCc2c1cc1n(c2=O)Cc2c-1nc1ccccc1c2/C=N/NC(=O)C[N+](C)(C)C
TGI (TK-10 renal): > 100 µM | TGI (HCT-116 colon): > 100 µM | TGI (UACC-62 melanoma): 3.66 µM | TGI (MDA-MB-435): > 100 µM | TGI (SK-OV-3 ovarian): > 100 µM | TGI (HCT-15 colon): > 100 µM | TGI (NCI-H23 lung): 6.27 µM | TGI (SK-MEL-5 melanoma): 7.98 µM | TGI (COLO 205 colon): > 100 µM | TGI (RPMI-8226 leukemia): > 100 µM | TGI (MOLT-4 leukemia): 16.3 µM | TGI (NCI-H522 lung): > 100 µM | TGI (KM12 colon): > 100 µM | TGI (SK-MEL-2 melanoma): > 100 µM | TGI (SR leukemia): 0.922 µM | TGI (SF-539 CNS): 2.61 µM | TGI (EKVX NSCLC): > 100 µM | TGI (OVCAR-8 ovarian): > 100 µM | TGI (NCI-H460 lung): 21.5 µM | TGI (OVCAR-3 ovarian): > 100 µM | TGI (DU-145 prostate): 22 µM | TGI (SN12C renal): > 100 µM | TGI (CAKI-1 renal): > 100 µM | TGI (SW-620 colon): > 100 µM | TGI (MALME-3M melanoma): > 100 µM | TGI (SK-MEL-28 melanoma): > 100 µM | TGI (U251 CNS): > 35.8 µM | TGI (HCC-2998 colon): > 100 µM | TGI (HT29 colon): > 100 µM | TGI (HS 578T breast): > 100 µM | TGI (NCI-H226 lung): 31.8 µM | TGI (OVCAR-5 ovarian): > 100 µM | TGI (LOX IMVI melanoma): > 37.6 µM | TGI (IGROV1 ovarian): > 100 µM | TGI (OVCAR-4 ovarian): > 100 µM | TGI (MDA-N): > 100 µM | TGI (A498 renal): > 65.1 µM | TGI (UO-31 renal): 9.72 µM | TGI (PC-3 prostate): > 100 µM | TGI (SF-268 CNS): > 63 µM | TGI (UACC-257 melanoma): > 100 µM | TGI (T-47D breast): 30.4 µM | TGI (SF-295 CNS): > 33.3 µM | TGI (MDA-MB-231 breast): > 100 µM | TGI (K-562 leukemia): > 100 µM | TGI (786-0 renal): > 55.7 µM | TGI (HOP-92 NSCLC): > 49.3 µM | TGI (SNB-75 CNS): 9.74 µM | TGI (MCF7 breast): > 100 µM | TGI (NCI/ADR-RES ovarian): > 62.3 µM | TGI (SNB-19 CNS): > 94.2 µM | TGI (A549 NSCLC): > 100 µM | TGI (BT-549 breast): > 100 µM | TGI (RXF 393 renal): 11.7 µM | TGI (M14 melanoma): 20.5 µM
